In PubChem BioAssay (NCI):
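Assay format: 96-well plates, 48-hour exposure. At the GI50, growth is halved. Definition used: TGI = concentration required for complete inhibition of growth.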

Experiments:
Test in all cases: NCI-60 cell line screen, 48 h
786-0 renal = tested on: 786-0 renal
A498 renal = tested on: A498 renal
A549 NSCLC = tested on: A549 NSCLC
BT-549 breast = tested on: BT-549 breast
CAKI-1 renal = tested on: CAKI-1 renal
CCRF-CEM leukemia = tested on: CCRF-CEM leukemia
COLO 205 colon = tested on: COLO 205 colon
DU-145 prostate = tested on: DU-145 prostate
HCC-2998 colon = tested on: HCC-2998 colon
HCT-116 colon = tested on: HCT-116 colon
HCT-15 colon = tested on: HCT-15 colon
HL-60(TB) leukemia = tested on: HL-60(TB) leukemia
HOP-62 NSCLC = tested on: HOP-62 NSCLC
HOP-92 NSCLC = tested on: HOP-92 NSCLC
HS 578T breast = tested on: HS 578T breast
HT29 colon = tested on: HT29 colon
IGROV1 ovarian = tested on: IGROV1 ovarian
K-562 leukemia = tested on: K-562 leukemia
KM12 colon = tested on: KM12 colon
LOX IMVI melanoma = tested on: LOX IMVI melanoma
M14 melanoma = tested on: M14 melanoma
MALME-3M melanoma = tested on: MALME-3M melanoma
MCF7 breast = tested on: MCF7 breast
MDA-MB-231 breast = tested on: MDA-MB-231 breast
MDA-MB-435 = tested on: MDA-MB-435
MOLT-4 leukemia = tested on: MOLT-4 leukemia
NCI-H226 lung = tested on: NCI-H226 lung
NCI-H23 lung = tested on: NCI-H23 lung
NCI-H460 lung = tested on: NCI-H460 lung
NCI-H522 lung = tested on: NCI-H522 lung
NCI/ADR-RES ovarian = tested on: NCI/ADR-RES ovarian
OVCAR-3 ovarian = tested on: OVCAR-3 ovarian
OVCAR-4 ovarian = tested on: OVCAR-4 ovarian
OVCAR-8 ovarian = tested on: OVCAR-8 ovarian
PC-3 prostate = tested on: PC-3 prostate
RPMI-8226 leukemia = tested on: RPMI-8226 leukemia
RXF 393 renal = tested on: RXF 393 renal
SF-268 CNS = tested on: SF-268 CNS
SF-295 CNS = tested on: SF-295 CNS
SK-MEL-5 melanoma = tested on: SK-MEL-5 melanoma
SK-OV-3 ovarian = tested on: SK-OV-3 ovarian
SN12C renal = tested on: SN12C renal
SNB-19 CNS = tested on: SNB-19 CNS
SNB-75 CNS = tested on: SNB-75 CNS
SR leukemia = tested on: SR leukemia
SW-620 colon = tested on: SW-620 colon
T-47D breast = tested on: T-47D breast
TK-10 renal = tested on: TK-10 renal
U251 CNS = tested on: U251 CNS
UACC-257 melanoma = tested on: UACC-257 melanoma
UACC-62 melanoma = tested on: UACC-62 melanoma
UO-31 renal = tested on: UO-31 renal

## Cc1cc(N2CCN(c3ccnc4cc(Cl)ccc34)CC2)nc(NC2CCCCC2)n1
786-0 renal
  GI50: 1.57 µM
  TGI: 3.05 µM
A498 renal
  GI50: 0.118 µM
  TGI: 3.21 µM
A549 NSCLC
  GI50: 2.02 µM
  TGI: 4.48 µM
BT-549 breast
  GI50: 1.66 µM
  TGI: 3.28 µM
CAKI-1 renal
  GI50: 1.63 µM
  TGI: 3.6 µM
CCRF-CEM leukemia
  GI50: 2.71 µM
  TGI: 10.1 µM
COLO 205 colon
  GI50: 1.65 µM
  TGI: 3.34 µM
DU-145 prostate
  GI50: 3.51 µM
  TGI: 11.2 µM
HCC-2998 colon
  GI50: 2 µM
  TGI: 3.84 µM
HCT-116 colon
  GI50: 1.32 µM
  TGI: 2.91 µM
HCT-15 colon
  GI50: 1.55 µM
  TGI: 3.44 µM
HL-60(TB) leukemia
  GI50: 2.25 µM
  TGI: 5.32 µM
HOP-62 NSCLC
  GI50: 2.02 µM
  TGI: 4.61 µM
HOP-92 NSCLC
  GI50: 1.08 µM
  TGI: 3.04 µM
HS 578T breast
  GI50: 2.1 µM
  TGI: 6.62 µM
HT29 colon
  GI50: 1.79 µM
  TGI: 3.9 µM
IGROV1 ovarian
  GI50: 2.35 µM
  TGI: 5.35 µM
K-562 leukemia
  GI50: 2.1 µM
  TGI: 5.64 µM
KM12 colon
  GI50: 2.56 µM
  TGI: 6.27 µM
LOX IMVI melanoma
  GI50: 1.73 µM
  TGI: 3.19 µM
M14 melanoma
  GI50: 1.7 µM
  TGI: 3.36 µM
MALME-3M melanoma
  GI50: 1.89 µM
  TGI: 3.83 µM
MCF7 breast
  GI50: 1.57 µM
  TGI: 3.47 µM
MDA-MB-231 breast
  GI50: 2 µM
  TGI: 4.09 µM
MDA-MB-435
  GI50: 1.49 µM
  TGI: 2.96 µM
MOLT-4 leukemia
  GI50: 2.38 µM
  TGI: 5.62 µM
NCI-H226 lung
  GI50: 3.23 µM
  TGI: 15 µM
NCI-H23 lung
  GI50: 3.04 µM
  TGI: 8.37 µM
NCI-H460 lung
  GI50: 1.88 µM
  TGI: 3.71 µM
NCI-H522 lung
  GI50: 1.93 µM
  TGI: 3.8 µM
NCI/ADR-RES ovarian
  GI50: 1.91 µM
  TGI: 3.97 µM
OVCAR-3 ovarian
  GI50: 1.9 µM
  TGI: 3.9 µM
OVCAR-4 ovarian
  GI50: 2.08 µM
  TGI: 8.77 µM
OVCAR-8 ovarian
  GI50: 2.39 µM
  TGI: 6.35 µM
PC-3 prostate
  GI50: 1.47 µM
  TGI: 3.02 µM
RPMI-8226 leukemia
  GI50: 1.85 µM
  TGI: 4.8 µM
RXF 393 renal
  GI50: 1.71 µM
  TGI: 3.79 µM
SF-268 CNS
  GI50: 2.34 µM
  TGI: 5.41 µM
SF-295 CNS
  GI50: 1.72 µM
  TGI: 3.49 µM
SK-MEL-5 melanoma
  GI50: 1.73 µM
  TGI: 3.3 µM
SK-OV-3 ovarian
  GI50: 2.02 µM
  TGI: 4.51 µM
SN12C renal
  GI50: 1.82 µM
  TGI: 3.73 µM
SNB-19 CNS
  GI50: 2.98 µM
  TGI: 11 µM
SNB-75 CNS
  GI50: 1.79 µM
  TGI: 3.95 µM
SR leukemia
  GI50: 1.93 µM
  TGI: 4.73 µM
SW-620 colon
  GI50: 1.87 µM
  TGI: 4.35 µM
T-47D breast
  GI50: 1.89 µM
  TGI: 4.7 µM
TK-10 renal
  GI50: 1.87 µM
  TGI: 3.54 µM
U251 CNS
  GI50: 1.72 µM
  TGI: 3.37 µM
UACC-257 melanoma
  GI50: 1.86 µM
  TGI: 3.92 µM
UACC-62 melanoma
  GI50: 1.66 µM
  TGI: 3.34 µM
UO-31 renal
  GI50: 1.4 µM
  TGI: 3.13 µM
